Measured values: patent US11053218B2, “3-(1-oxoisoindolin-2-yl)piperidine-2,6-dione derivatives and uses thereof” (Novartis AG, priority 2017, dated 2021)

What was measured:
[1] = target: IKZF2 (Homo sapiens, UniProt Q96SW2+Q9UKS7); assay: Prolabel quantification of IKZF2 protein levels in 293GT cells; assay type: cell-based; conditions: for inhibition at 10 µM: 24 h, read-out: IKZF2 % protein reduction at 10 μM, 24 h; for inhibition at 10 µM / DC50: 293GT cells; for DC50: Prolabel assay, read-out: IKZF2 EC50
Sequence of IKZF2 (Q9UKS7 whole entry, the tested form may be a part): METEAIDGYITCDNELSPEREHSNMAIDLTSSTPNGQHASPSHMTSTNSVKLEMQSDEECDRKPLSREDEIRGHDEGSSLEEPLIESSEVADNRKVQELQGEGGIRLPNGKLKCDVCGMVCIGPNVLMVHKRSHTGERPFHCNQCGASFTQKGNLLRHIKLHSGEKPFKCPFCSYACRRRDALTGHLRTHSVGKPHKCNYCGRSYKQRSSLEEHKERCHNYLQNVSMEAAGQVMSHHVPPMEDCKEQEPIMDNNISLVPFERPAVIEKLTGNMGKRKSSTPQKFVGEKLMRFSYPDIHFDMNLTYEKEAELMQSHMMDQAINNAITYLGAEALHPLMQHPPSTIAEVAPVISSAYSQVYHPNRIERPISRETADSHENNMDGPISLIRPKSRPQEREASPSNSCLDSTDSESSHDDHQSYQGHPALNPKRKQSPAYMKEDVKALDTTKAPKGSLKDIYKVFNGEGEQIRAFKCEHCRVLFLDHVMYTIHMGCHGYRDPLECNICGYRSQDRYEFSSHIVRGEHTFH
Sequence of IKZF2 (Q96SW2 whole entry, the tested form may be a part): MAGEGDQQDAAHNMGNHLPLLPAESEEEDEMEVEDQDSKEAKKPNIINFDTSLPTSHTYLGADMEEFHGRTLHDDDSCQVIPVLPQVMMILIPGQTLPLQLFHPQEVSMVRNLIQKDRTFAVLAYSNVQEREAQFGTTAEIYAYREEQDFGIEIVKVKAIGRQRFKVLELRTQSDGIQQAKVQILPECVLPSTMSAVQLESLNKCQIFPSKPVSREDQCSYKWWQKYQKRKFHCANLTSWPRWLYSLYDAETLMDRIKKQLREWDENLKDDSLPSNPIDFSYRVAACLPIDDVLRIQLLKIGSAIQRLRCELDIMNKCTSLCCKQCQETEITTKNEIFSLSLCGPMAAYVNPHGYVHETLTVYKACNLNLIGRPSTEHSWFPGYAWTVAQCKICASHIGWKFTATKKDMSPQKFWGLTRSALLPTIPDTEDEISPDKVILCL
Sequence of IKZF2 (Q16531 whole entry partner, the tested form may be a part): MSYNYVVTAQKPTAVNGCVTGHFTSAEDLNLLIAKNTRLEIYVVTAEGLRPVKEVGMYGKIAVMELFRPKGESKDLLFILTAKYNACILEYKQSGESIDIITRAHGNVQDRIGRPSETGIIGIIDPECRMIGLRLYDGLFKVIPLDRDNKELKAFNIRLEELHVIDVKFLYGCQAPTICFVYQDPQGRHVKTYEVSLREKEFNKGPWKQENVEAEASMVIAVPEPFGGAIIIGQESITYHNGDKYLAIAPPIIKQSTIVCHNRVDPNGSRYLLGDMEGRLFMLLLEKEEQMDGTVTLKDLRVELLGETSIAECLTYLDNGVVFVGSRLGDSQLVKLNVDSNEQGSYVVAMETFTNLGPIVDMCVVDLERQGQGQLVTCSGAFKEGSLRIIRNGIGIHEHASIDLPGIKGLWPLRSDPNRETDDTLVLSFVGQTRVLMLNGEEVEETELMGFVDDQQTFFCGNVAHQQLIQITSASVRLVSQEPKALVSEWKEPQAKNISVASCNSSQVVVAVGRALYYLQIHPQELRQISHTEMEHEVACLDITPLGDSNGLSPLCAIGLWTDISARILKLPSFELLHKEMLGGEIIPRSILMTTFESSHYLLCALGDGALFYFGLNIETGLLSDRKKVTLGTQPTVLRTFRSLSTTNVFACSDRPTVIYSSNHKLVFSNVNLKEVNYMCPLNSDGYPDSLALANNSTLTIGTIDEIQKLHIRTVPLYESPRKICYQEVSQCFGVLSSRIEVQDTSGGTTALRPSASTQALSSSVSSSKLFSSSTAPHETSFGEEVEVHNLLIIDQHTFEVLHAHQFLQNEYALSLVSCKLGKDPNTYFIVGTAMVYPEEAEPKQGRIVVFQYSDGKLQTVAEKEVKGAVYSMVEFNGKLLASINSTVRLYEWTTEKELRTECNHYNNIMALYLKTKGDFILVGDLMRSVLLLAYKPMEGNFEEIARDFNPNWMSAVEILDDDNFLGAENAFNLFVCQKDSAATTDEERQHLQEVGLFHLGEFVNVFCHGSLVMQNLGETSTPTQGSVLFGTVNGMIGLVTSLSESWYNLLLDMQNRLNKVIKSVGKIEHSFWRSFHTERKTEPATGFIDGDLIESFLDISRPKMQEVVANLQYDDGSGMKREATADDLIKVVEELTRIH
Experimental: (§1) The Prolabel system from DiscoverX was used to develop high-throughput and quantitative assays to measure changes in IKZF1, IKZF2 and GSPT1 protein levels in response to compounds. The prolabel tag was derived from the alpha fragment of beta galactosidase and has the following protein sequence: mssnslavvlqrrdwenpgvtqlnrlaahppfaswrnseeartdrpsqqlrslnge. The complementary fragment of beta-galactosidase (from DiscoverX), is added to the prolabel tag to form an active beta galactosidase enzyme whose activity can be precisely measured. In this way, the levels of a fusion protein with the prolabel tag can be quantified in cell lysates.
(§2) Lentiviral vectors, based on the Invitrogen pLenti6.2/V5 DEST backbone, were constructed that placed the prolabel tag upstream of IKZF1, IKZF2 or GSPT1 and expressed the fusion protein from a CMV promoter.
(§3) To ensure moderate and consistent expression of the prolabel fusion proteins across all cells in the population, stable cell lines were constructed from cells expressing a single copy of the construct. Lentivirus packaged with the constructs was made using the Virapower kit from Invitrogen.
(§4) The levels of prolabel tagged fusion proteins in compound treated cell lines were measured as follows:
(§5) Day 1, Cells were diluted to 1.0×10^6 cells/ml in normal growth medium. 17.5 μL of cells were plated in each well of a solid white 384 well plate. Plates were incubated overnight in a 37° C. tissue culture incubator.
(§6) Day 2, Serial dilutions of compounds were made in 384 well plates from 10 mM stocks. 15 μL of DMSO was added to each well of a 384 well plate. In the first column 15 μL of stock compound was added. The solution was mixed and 15 μL was transferred to the next column. This was repeated until 20 two-fold dilutions were prepared. 2.5 μL of diluted compounds were transferred into 60 μL of cell culture medium in another 384 well plate, and mixed well. 2.5 μL of this mixture was added to the plated cells. The final DMSO concentration was 0.5% and the highest concentration of compound was 50 μM. Plates were incubated overnight (e.g., about 14 h, 18 h, or 24 h) in a 37° C. tissue culture incubator.
(§7) Day 3, Plates were removed from the incubator and allowed to equilibrate at rt for 30 minutes. Prolabel substrate (DiscoverX PathHunter Prolabel Detection Kit, User manual: 93-0180) was added as described by the manufacturers protocols. Plates were incubated at rt for three hours and luminescence was read using an Envision reader (Perkin Elmer) Data was analyzed and visualized using the Spotfire software package.

[2] = target: IKZF1 (Homo sapiens, UniProt Q13422+Q96SW2); assay: Prolabel quantification of IKZF1 protein levels in 293GT cells; assay type: cell-based; conditions: Prolabel assay, read-out: IKZF1 EC50
Sequence of IKZF1 (Q13422 whole entry): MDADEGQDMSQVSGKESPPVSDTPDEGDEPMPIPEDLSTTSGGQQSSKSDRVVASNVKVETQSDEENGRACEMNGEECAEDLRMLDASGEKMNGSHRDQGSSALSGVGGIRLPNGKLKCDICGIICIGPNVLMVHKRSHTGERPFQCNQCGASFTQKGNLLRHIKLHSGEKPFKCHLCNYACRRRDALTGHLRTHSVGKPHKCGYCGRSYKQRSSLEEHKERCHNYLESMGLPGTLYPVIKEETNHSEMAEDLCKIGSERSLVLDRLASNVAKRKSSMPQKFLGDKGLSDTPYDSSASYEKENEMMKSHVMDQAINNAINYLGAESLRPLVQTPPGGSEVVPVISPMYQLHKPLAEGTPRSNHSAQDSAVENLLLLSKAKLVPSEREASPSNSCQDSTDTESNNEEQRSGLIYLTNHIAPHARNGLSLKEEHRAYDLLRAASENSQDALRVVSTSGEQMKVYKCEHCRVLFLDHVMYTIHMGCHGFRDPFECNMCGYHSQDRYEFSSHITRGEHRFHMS
Sequence of IKZF1 (Q96SW2 whole entry): as the sequence (Q96SW2 whole entry, the tested form may be a part) above
Sequence of IKZF1 (Q16531 whole entry partner): as the sequence (Q16531 whole entry partner, the tested form may be a part) above
Experimental: as §1, §2, §3, §4, §5, §6, §7

| Structure (SMILES) | inhibition at 10 µM [1] | DC50 [1] | DC50 [2] | IKZF2 protein levels as compared to the control (DMSO) ([1]; Prolabel assay in HEK293GT cells, bar graph) |
| --- | --- | --- | --- | --- |
| O=C1CCC(N2Cc3cc(C4CCN(Cc5ccc(CF)cc5)CC4)ccc3C2=O)C(=O)N1 (stereo not shown) [Compound I-63, 3-(5-(1-(4-(fluoromethyl)benzyl)piperidin-4-yl)-1-oxoisoindolin-2-yl)piperidine-2,6-dione] | 75% | 11 nM | > 30000 nM |  |
| CCc1ccc(CN2CCC(c3ccc4c(c3)CN(C3CCC(=O)NC3=O)C4=O)CC2)cc1 (stereo not shown) [Compound I-66, 3-(5-(1-(4-ethylbenzyl)piperidin-4-yl)-1-oxoisoindolin-2-yl)piperidine-2,6-dione] | 70% | 9 nM | > 30000 nM |  |
| COc1ccccc1CN1CCC(c2ccc3c(c2)CN(C2CCC(=O)NC2=O)C3=O)CC1 (stereo not shown) [Compound I-67, 3-(5-(1-(2-methoxybenzyl)piperidin-4-yl)-1-oxoisoindolin-2-yl)piperidine-2,6-dione] | 70% | 58 nM | > 30000 nM |  |
| Cc1ccc(CN2CCC(c3ccc4c(c3)CN(C3CCC(=O)NC3=O)C4=O)CC2)cc1F (stereo not shown) [Compound I-69, 3-(5-(1-(3-fluoro-4-methylbenzyl)piperidin-4-yl)-1-oxoisoindolin-2-yl)piperidine-2,6-dione] | 80% | 15 nM | > 30000 nM | decreased |
| O=C1CCC(N2Cc3cc(C4CCN(Cc5ccc(C(=O)O)cc5)CC4)ccc3C2=O)C(=O)N1 (stereo not shown) [Compound I-72, 4-((4-(2-(2,6-dioxopiperidin-3-yl)-1-oxoisoindolin-5-yl)piperidin-1-yl)methyl)benzoic acid] | 55% | 4500 nM | > 30000 nM |  |
| O=C1CCC(N2Cc3cc(C4CCN(Cc5cccc(C(F)F)c5)CC4)ccc3C2=O)C(=O)N1 (stereo not shown) [Compound I-73, 3-(5-(1-(3-(difluoromethyl)benzyl)piperidin-4-yl)-1-oxoisoindolin-2-yl)piperidine-2,6-dione] | 70% | 11 nM | > 30000 nM |  |
| O=C1CCC(N2Cc3cc(C4CCN(Cc5cccc(C(=O)O)c5)CC4)ccc3C2=O)C(=O)N1 (stereo not shown) [Compound I-74, 3-((4-(2-(2,6-dioxopiperidin-3-yl)-1-oxoisoindolin-5-yl)piperidin-1-yl)methyl)benzoic acid] | 55% | 2100 nM | > 30000 nM |  |
| CCCc1ccc(CN2CCC(c3ccc4c(c3)CN(C3CCC(=O)NC3=O)C4=O)CC2)cc1 (stereo not shown) [Compound I-75, 3-(1-oxo-5-(1-(4-propylbenzyl)piperidin-4-yl)isoindolin-2-yl)piperidine-2,6-dione] | 80% | 20 nM | > 30000 nM |  |
| O=C1CCC(N2Cc3cc(C4CCN(Cc5ccc(C(F)(F)F)cc5)CC4)ccc3C2=O)C(=O)N1 (stereo not shown) [Compound I-76, 3-(1-oxo-5-(1-(4-(trifluoromethyl)benzyl)piperidin-4-yl)isoindolin-2-yl)piperidine-2,6-dione] | 75% | 17 nM | > 30000 nM |  |
| O=C1CCC(N2Cc3cc(C4CCN(Cc5ccc(C(F)(F)F)cn5)CC4)ccc3C2=O)C(=O)N1 (stereo not shown) [Compound I-78, 3-(1-oxo-5-(1-((5-(trifluoromethyl)pyridin-2-yl)methyl)piperidin-4-yl)isoindolin-2-yl)piperidine-2,6-dione] | 40% | 210 nM | > 30000 nM |  |
| O=C1CCC(N2Cc3cc(C4CCN(Cc5cccc(OC(F)F)c5)CC4)ccc3C2=O)C(=O)N1 (stereo not shown) [Compound I-79, 3-(5-(1-(3-(difluoromethoxy)benzyl)piperidin-4-yl)-1-oxoisoindolin-2-yl)piperidine-2,6-dione] | 75% | 3 nM | > 30000 nM |  |
| O=C1CCC(N2Cc3cc(C4CCN(Cc5ccccc5OC(F)F)CC4)ccc3C2=O)C(=O)N1 (stereo not shown) [Compound I-80, 3-(5-(1-(2-(difluoromethoxy)benzyl)piperidin-4-yl)-1-oxoisoindolin-2-yl)piperidine-2,6-dione] | 60% | 12 nM | > 30000 nM |  |
